Data set [1] has as its system Cis-A2780 cells. As to the kind of experiment: MTS cell viability assay, Cis-A2780. Conditions: Homo sapiens, cisplatin-resistant ovarian cancer cell line, 48 h exposure, read-out: IC50 ± SD, Cis-A2780. It counts as cell-based. An excerpt: (§1) Our research group is extensively involved in studying the role of vacuolar (H^+)-ATPase in breast as well as ovarian cancer cell lines. We examined the antiproliferative activity of the novel bisbenzimidazole derivatives (2a–e) in selected human breast cancer cell lines, MDA-MB-231 (ATCC, HTB-26), MDA-MB-468 (ATCC, HTB-132), MCF-7 (ATCC, HTB-22), and the normal breast epithelial cell line, MCF10A. We also used the cisplatin-sensitive A2780, PA-1 (ATCC, CRL 1572), and the cisplatin-resistant Cis-A2780 ovarian cancer cell lines. A potent V-ATPase inhibitor, Bafilomycin A1 (Baf A1), was used as the positive control. We employed the CellTiter 96 AQueous One solution cell proliferation assay (MTS; Promega) to measure the in vitro cell viability of the cells.
(§2) We studied the antiproliferative activity of an initial hit (compound V), and bisbenzimidazole analogs 2a–e in the selected human breast cancer cell lines MDA-MB-231 (ATCC, HTB-26), MDA-MB-468 (ATCC, HTB-132), MCF-7 (ATCC, HTB-22) and the normal breast epithelial cell line, MCF10A, and the ovarian cancer cell lines, A2780, Cis-A2780, and PA-1 (ATCC, CRL 1572). Human breast cancer cell lines and the human ovarian cancer cell line (PA-1) were purchased from ATCC (American Type Culture Collection, Manassas, VA, USA). The cisplatin-sensitive human ovarian carcinoma cell line, A2780, was obtained from Sigma-Aldrich. The cisplatin-resistant human ovarian cell line, Cis-A2780, was produced in our laboratory, as described in the literature. MDA-MB-231, MDA-MB-468, MCF7, and PA-1 were cultured in the MEM medium (Gibco—Life Technologies, Carlsbad, CA, USA). For the MCF-7 cell line, a final concentration of 0.01 mg/mL human recombinant insulin was added to the media. The normal breast epithelial cell line, MCF-10A, was cultured in complete MEBM (Lonza/Clonetics, Walkersville, MD, USA), as recommended by ATCC. A2780, Cis-A2780 cell lines were cultured in RPMI 1640 medium (Invitrogen, Carlsbad, CA, USA). All media were supplemented with 10% (v/v) heat-inactivated fetal bovine serum (Biowest LLC, Riverside, MO, USA), 100 U/mL penicillin G and 100 U/mL streptomycin (Sigma Aldrich, St. Louis, MO, USA). Cultures were maintained at 37 °C in a humidified atmosphere containing 5% CO2 and were passaged by trypsinization after reaching 80–90% confluence.
(§3) CellTiter 96 AQueous One Solution cell proliferation assay (MTS) was used to measure the in vitro cell viability of cells, and the MTS purchased from Promega (Madison, WI, USA). Cells (5 × 10^3) were seeded into each well of 96-well plates and incubated overnight. Dimethyl Sulfoxide (DMSO) stock solutions of the compounds (V, 2a–e) were diluted in corresponding media and exposed to different concentrations for 48 h. All three independent experiments were performed in quadruplicates. Untreated cells were used as a negative control and data were presented as the mean ± standard deviation (S.D.). The absorbances at 492 nm were measured using a Microplate Reader (Synergy HT, Biotek Instruments, Winooski, VT, USA). The compound concentration that inhibited cell growth by 50% of the untreated control (IC50) was calculated from the dose response curves constructed by plotting percentages of cell viability versus drug concentrations using nonlinear regression analysis by GraphPad Prism Software 7 (GraphPad Software, San Diego, CA, USA).

In data set [2] the test system is MDA-MB-231 cells. The data set is described as follows: MTS cell viability assay, MDA-MB-231. It counts as cell-based. As to conditions: Homo sapiens, breast cancer cell line, 48 h exposure, read-out: IC50 ± SD, MDA-MB-231.
From the text: as §1, §2, §3

Data set [3] concerns V-ATPase. As to the kind of experiment: Proton pump activity, acridine orange fluorescence quenching in MDA-MB-231 cells. It counts as cell-based, human. Conditions: 20 min incubation, relative to untreated control. The source says: Since our hit compound (V) has been identified by the literature known V-ATPases, we hypothesized that these newly synthesized bisbenzimidazole derivatives (2a–e) will work as proton pump inhibitors (PPIs). To neutralize the acidic microenvironment, PPIs have been used to target the V-ATPase pumps present on the cell membrane. […] Therefore, we selected efficacious anticancer agents for the proton pump activity. We performed the standard proton pump activity using the acridine orange (AO) fluorescence quenching method. We selected two highly efficacious compounds (2d and 2e) and our initial hit (V) for proton pump activity. Baf A1 is a known V-ATPase inhibitor and is used as a positive control. The proton pump activity of cells was measured as a decrease in the fluorescence intensity per min. The activity of cells in the presence of Baf A1 and the potent compounds (V, 2d, and 2e) was calculated as a percentage of the untreated control. The values represented are mean values of duplicate measurements (Figure 10).
The proton pump activity was assessed by using the AO fluorescence quenching method. Bafilomycin A1 (Baf A1), AO, and nigericin were purchased from Sigma-Aldrich. Hank’s Balanced Salt Solution (HBSS) was purchased from Gibco-Life Technologies (Carlsbad, CA, USA). Human breast cancer MDA-MB-231 (ATCC, HTB-26) cells were washed twice with Hank’s Balanced Salt Solution (HBSS). The cells were re-suspended at a density of 5 × 10^6 cells per mL in the same buffer and placed on ice. H^+ uptake was initiated by the addition of MDA-MB-231 cells (10 μL; […]) to pre-warmed HBSS (2.4 mL) containing AO (6 μL; 30 μM) and placed in a cuvette. AO fluorescence was measured at an excitation wavelength of 495 nm and an emission wavelength of 540 nm using the LS-50B Luminescence Spectrometer (Perkin Elmer, Software: FL WinLab, Version 4.00.03). Nigericin (6 μL; 6 μM) was added to collapse the pH gradient and unquench the AO fluorescence (See Supplementary Figure S1: 1a and 1b). […] A decrease in the fluorescence intensities per min of Baf A1 and the potent compounds (V, 2d, and 2e) was calculated and is expressed as a percentage of the control (mean ± SD of two independent experiments) (Figure 10).
Figure 10 Effect of V-ATPase inhibitors on proton pump activity. Cells (MDA-MB-231) were subjected to acridine orange (AO) fluorescence quenching assay in the presence and absence of Baf A1 (1 μM) and potent compounds (V, 2d, and 2e; 10 μM). Fluorescence intensity at an excitation of 495 nm and an emission of 540 nm was quantified. Decrease in fluorescence intensity per min was calculated as percentage relative to control (mean ± SD; n = 2).

Data set [4] has as its system MCF10A cells. The data set is described as follows: MTS cell viability assay, MCF10A normal breast epithelial cells. As to conditions: Homo sapiens, MCF-10A, normal breast epithelial cell line, 48 h exposure, read-out: IC50 ± SD, MCF10A. It counts as cell-based.
From the text: as §1, §2, §3
(Tetrazolium assays rely on reduction of a dye to a coloured formazan, in cell work by metabolically active cells.)

Data set [5] has as its system A2780 cells. The data set is described as follows: MTS cell viability assay, A2780. It counts as cell-based. As to conditions: Homo sapiens, cisplatin-sensitive ovarian cancer cell line, 48 h exposure, read-out: IC50 ± SD, A2780.
From the text: as §1, §2, §3

For data set [6], the system named is MCF7 cells. The data set is described as follows: MTS cell viability assay, MCF7. It counts as cell-based. As to conditions: Homo sapiens, breast cancer cell line, 48 h exposure, read-out: IC50 ± SD, MCF7.
From the text: as §1, §2, §3

Data set [7] deals with MDA-MB-468 cells. As to the kind of experiment: MTS cell viability assay, MDA-MB-468. Conditions: for IC50: Homo sapiens, MDA-MB-468, triple-negative breast cancer cell line, 48 h exposure, MTS, read-out: IC50 ± SD, MDA-MB-468. It counts as cell-based, human.
From the text: as §1, §2, §3

In data set [8] the test system is PA-1 cells. The data set is described as follows: MTS cell viability assay, PA-1. It counts as cell-based. Conditions: Homo sapiens, cisplatin-sensitive ovarian cancer cell line, 48 h exposure, read-out: IC50 ± SD, PA-1.
From the text: as §1, §2, §3

Molecules are shown by their SMILES.

As usually defined, the IC50 is the concentration needed to halve the response being measured. `CO/C1=C\C(C)=C\[C@@H](C)[C@@H](O)[C@@H](C)C/C(C)=C/C=C/[C@H](OC)[C@@H]([C@@H](C)[C@@H](O)[C@H](C)[C@@]2(O)C[C@@H](O)[C@H](C)[C@@H](C(C)C)O2)OC1=O` [Baf A1, Bafilomycin A1, reference compound]: the IC50 in data set [1] came to 8 ± 10 nM; in data set [2] it was 26 ± 20 nM; in [4], 36 ± 40 nM. Moreover, the “inhibition of the H^+-ATPase activity” value in [3] (1 μM) turned out to be 25%.
Usually melting point stands for the temperature of the solid-liquid transition. `CN1CCC(Oc2ccc(-c3nc4ccc(-c5nc6ccc(N7CCN(C)CC7)cc6[nH]5)cc4[nH]3)cc2)CC1` [Compound 2a, 6-(4-Methylpiperazin-1-yl)-2'-(4-((1-methylpiperidin-4-yl)oxy)phenyl)-1H,3'H-2,5'-bibenzo[d]imidazole] showed a melting point of 165 to 166 °C. In addition, the 50% inhibitory concentration (IC50) in [1] worked out at 25200 ± 320 nM. For the same compound, the IC50 in data set [2] was 17600 ± 190 nM. For the same compound, the IC50 in [4] is 13400 ± 370 nM. Also, the half-inhibitory concentration (IC50) in data set [5] was 26500 ± 1440 nM. In addition, the IC50 in data set [6] is 49300 ± 2760 nM. Moreover, the IC50 in data set [7] is 13400 ± 330 nM.
Compound `CN(C)CCCOc1ccc(-c2nc3ccc(-c4nc5ccc(N6CCN(C)CC6)cc5[nH]4)cc3[nH]2)cc1` [Compound 2b, N,N-Dimethyl-3-(4-(6-(4-methylpiperazin-1-yl)-1H,3'H-[2,5'-bibenzo[d]imidazol]-2'-yl)phenoxy)propan-1-amine] came in with a melting point of 171 to 172 °C. For the same compound, in data set [1], the IC50 was found to be 12340 ± 20 nM. Moreover, in data set [2], the IC50 was 4770 ± 430 nM. Besides, in [4], the IC50 is 2950 ± 150 nM. In addition, in data set [8], the IC50 is 5830 ± 70 nM. In [5], the IC50 was determined as 11800 ± 10 nM. For the same compound, the IC50 in [6] came out at 13500 ± 2140 nM. Moreover, the IC50 in data set [7] turned out to be 5830 ± 230 nM.
The compound `CN(C)CCOc1ccc(-c2nc3ccc(-c4nc5ccc(N6CCN(C)CC6)cc5[nH]4)cc3[nH]2)cc1` [Compound 2c, N,N-Dimethyl-2-(4-(6-(4-methylpiperazin-1-yl)-1H,3'H-[2,5'-bibenzo[d]imidazol]-2'-yl)phenoxy)ethanamine] yielded a melting point of 197 to 198 °C. Besides, in data set [1], the half-inhibitory concentration (IC50) was determined as 10700 ± 220 nM. Besides, the IC50 in data set [2] turned out to be 750 ± 300 nM. Also, the IC50 in data set [4] amounted to 810 ± 100 nM. In data set [8], the IC50 stood at 7780 ± 810 nM. Also, in [5], the IC50 came to 12900 ± 420 nM. Further, the IC50 in [7] came to 1170 ± 360 nM.
The compound `COCCOc1ccc(-c2nc3ccc(-c4nc5ccc(N6CCN(C)CC6)cc5[nH]4)cc3[nH]2)cc1` [Compound 2d, 2'-(4-(2-Methoxyethoxy)phenyl)-6-(4-methylpiperazin-1-yl)-1H,3'H-2,5'-bibenzo[d]imidazole] came in with a melting point of 208 to 209 °C. Besides, the IC50 in data set [1] was found to be 3030 ± 180 nM. Besides, the IC50 in [2] was found to be 2440 ± 330 nM. In addition, the “inhibition of the H^+-ATPase activity” value in data set [3] (10 μM) amounted to 14%. For the same compound, the IC50 in data set [4] came out at 1550 ± 40 nM. Moreover, in data set [8], the 50% inhibitory concentration (IC50) was 3090 ± 30 nM. Besides, the IC50 in [5] was determined as 1970 ± 190 nM. Also, in data set [6], the 50% inhibitory concentration (IC50) amounted to 22000 ± 3900 nM. Moreover, the IC50 in data set [7] stood at 560 ± 50 nM.
`CN1CCN(c2ccc3nc(-c4ccc5nc(-c6ccc(OCCC(C)(C)C)cc6)[nH]c5c4)[nH]c3c2)CC1` [Compound 2e, 2'-(4-(3,3-Dimethylbutoxy)phenyl)-6-(4-methylpiperazin-1-yl)-1H,3'H-2,5'-bibenzo[d]imidazole]: the melting point lay within 247 to 248 °C. For the same compound, the IC50 in [1] is 1340 ± 140 nM. In data set [2], the 50% inhibitory concentration (IC50) worked out at 1580 ± 50 nM. Also, the “inhibition of the H^+-ATPase activity” value in data set [3] (10 μM) stood at 42%. Moreover, the IC50 in data set [4] came out at 1620 ± 140 nM. The IC50 in data set [8] turned out to be 2870 ± 150 nM. Also, the IC50 in data set [5] is 2770 ± 50 nM. In [6], the IC50 amounted to 2020 ± 120 nM. Also, the half-maximal inhibitory concentration (IC50) in [7] turned out to be 40 ± 20 nM. Moreover, in data set [7] (ratio of IC50 in normal MCF10A cells to IC50 in MDA-MB-468 cells), the “times less toxic, MCF10A versus MDA-MB-468” value is given as around 40 times.
Regarding `CCOc1ccc(-c2nc3cc(-c4nc5cc(N6CCN(C)CC6)ccc5[nH]4)ccc3[nH]2)cc1` [Compound V], the half-maximal inhibitory concentration (IC50) is 3950 ± 330 nM in data set [1]; 1020 ± 80 nM in data set [2]; 1140 ± 130 nM in data set [4]; 1700 ± 210 nM in data set [8]; 3870 ± 90 nM in [5]; 9330 ± 690 nM in data set [6]. Further, the IC50 in [7] turned out to be 720 ± 80 nM. Also, the “inhibition of the H^+-ATPase activity” value in [3] (10 μM) is 30%.

(Values after paper PMC6151825, “Identification of Novel Bisbenzimidazole Derivatives as Anticancer Vacuolar (H^+)-ATPase Inhibitors” (Molecules : A Journal of Synthetic Chemistry and Natural …, 2017).)
